ChEMBL document CHEMBL1201862, “PubChem BioAssay data set” (2004)
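Values below derive from 48-hour exposures of cells grown in 96-well plates, with endpoints linearly interpolated between the two concentrations bracketing the appropriate inhibition level. GI50 marks 50% less growth.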 Active and inactive are the calls of the source. Cut-off read from the data, not from the text of the source: active = GI50 up to about 1.1 µM and inactive = higher.

Legend:
Experiment in all cases: NCI anticancer screen, dose series, 48 h
SK-OV-3 = tested on: SK-OV-3
SK-MEL-28 = tested on: SK-MEL-28
EKVX = tested on: EKVX
SF-539 = tested on: SF-539
HOP-92 = tested on: HOP-92
SNB-19 = tested on: SNB-19
LOX IMVI = tested on: LOX IMVI
U-251 = tested on: U-251
MDA-MB-435 = tested on: MDA-MB-435
NCI/ADR-RES = tested on: NCI/ADR-RES
UO-31 = tested on: UO-31
ACHN = tested on: ACHN
MDA-N = tested on: MDA-N
OVCAR-8 = tested on: OVCAR-8
HCT-116 = tested on: HCT-116
NCI-H460 = tested on: NCI-H460
786-0 = tested on: 786-0
HOP-62 = tested on: HOP-62
CAKI-1 = tested on: CAKI-1
A549 = tested on: A549
COLO 205 = tested on: COLO 205
CCRF-CEM = tested on: CCRF-CEM
UACC-257 = tested on: UACC-257
HT-29 = tested on: HT-29
OVCAR-4 = tested on: OVCAR-4
SK-MEL-5 = tested on: SK-MEL-5
HCT-15 = tested on: HCT-15
SF-268 = tested on: SF-268
NCI-H522 = tested on: NCI-H522
SK-MEL-2 = tested on: SK-MEL-2
PC-3 = tested on: PC-3
SR = tested on: SR
Malme-3M = tested on: Malme-3M
MDA-MB-231 = tested on: MDA-MB-231
DU-145 = tested on: DU-145
UACC-62 = tested on: UACC-62
TK-10 = tested on: TK-10
IGROV-1 = tested on: IGROV-1
Hs-578T = tested on: Hs-578T
RXF 393 = tested on: RXF 393
MOLT-4 = tested on: MOLT-4
MCF7 = tested on: MCF7
A498 = tested on: A498
M14 = tested on: M14
BT-549 = tested on: BT-549
K562 = tested on: K562
SN12C = tested on: SN12C
SNB-75 = tested on: SNB-75
HL-60 = tested on: HL-60
OVCAR-3 = tested on: OVCAR-3
OVCAR-5 = tested on: OVCAR-5
HCC 2998 = tested on: HCC 2998
T47D = tested on: T47D
KM12 = tested on: KM12
SF-295 = tested on: SF-295
NCI-H226 = tested on: NCI-H226
RPMI-8226 = tested on: RPMI-8226
SW-620 = tested on: SW-620
NCI-H23 = tested on: NCI-H23

## N=C1N=C(N)c2cc3c(cc21)SCCSCCCSCCS3
SK-OV-3
  GI50: 18.5 µM (inactive)
SK-MEL-28
  GI50: 14.6 µM (inactive)
EKVX
  GI50: 19.9 µM (inactive)
SF-539
  GI50: 20.1 µM (inactive)
HOP-92
  GI50: 23.1 µM (inactive)
SNB-19
  GI50: 15.5 µM (inactive)
LOX IMVI
  GI50: 4.38 µM (inactive)
U-251
  GI50: 15.1 µM (inactive)
MDA-MB-435
  GI50: 11.1 µM (inactive)
NCI/ADR-RES
  GI50: 58.1 µM (inactive)
UO-31
  GI50: 49.9 µM (inactive)
ACHN
  GI50: 12.9 µM (inactive)
MDA-N
  GI50: 15 µM (inactive)
OVCAR-8
  GI50: 18 µM (inactive)
HCT-116
  GI50: 9.59 µM (inactive)
NCI-H460
  GI50: 13.3 µM (inactive)
786-0
  GI50: 14.2 µM (inactive)
HOP-62
  GI50: 13.6 µM (inactive)
CAKI-1
  GI50: 42.4 µM (inactive)
A549
  GI50: 18.7 µM (inactive)
COLO 205
  GI50: 12 µM (inactive)
CCRF-CEM
  GI50: 3.95 µM (inactive)
UACC-257
  GI50: 20.2 µM (inactive)
HT-29
  GI50: 11.2 µM (inactive)
OVCAR-4
  GI50: 19.8 µM (inactive)
SK-MEL-5
  GI50: 16 µM (inactive)
HCT-15
  GI50: 14.3 µM
SF-268
  GI50: 12.8 µM (inactive)
NCI-H522
  GI50: 2.8 µM (inactive)
SK-MEL-2
  GI50: 16.1 µM (inactive)
PC-3
  GI50: 15.1 µM (inactive)
SR
  GI50: 11.1 µM (inactive)
Malme-3M
  GI50: 20.5 µM (inactive)
MDA-MB-231
  GI50: 16 µM (inactive)
DU-145
  GI50: 31.6 µM (inactive)
UACC-62
  GI50: 22 µM (inactive)
TK-10
  GI50: 15.1 µM (inactive)
IGROV-1
  GI50: 17.2 µM (inactive)
Hs-578T
  GI50: 10.1 µM (inactive)
RXF 393
  GI50: 15.8 µM (inactive)
MOLT-4
  GI50: 10.2 µM (inactive)
MCF7
  GI50: 27 µM (inactive)
A498
  GI50: > 44.7 µM (inactive)
M14
  GI50: 16.6 µM (inactive)
BT-549
  GI50: 14.1 µM (inactive)
K562
  GI50: 4.71 µM (inactive)
SN12C
  GI50: 14.6 µM (inactive)
SNB-75
  GI50: 14.8 µM (inactive)
HL-60
  GI50: 3.77 µM (inactive)
OVCAR-3
  GI50: 11.8 µM (inactive)
OVCAR-5
  GI50: 18.4 µM (inactive)
HCC 2998
  GI50: 9.62 µM (inactive)
T47D
  GI50: 24.8 µM (inactive)
KM12
  GI50: 11.9 µM (inactive)
SF-295
  GI50: 13.9 µM (inactive)
NCI-H226
  GI50: 20.5 µM (inactive)
RPMI-8226
  GI50: > 10 µM (inactive)
SW-620
  GI50: 11.6 µM (inactive)
NCI-H23
  GI50: 11.3 µM (inactive)
